Test results from US20080063628A1, “METHODS TO PROMOTE CELL DIFFERENTIATION” (priority 2006, published 2008).

Test system: second amniotic fluid-derived cell line
Assay: Two sequential high dose trichostatin A treatments (24 h each), gene expression by RT-PCR (Example 8)
Format: cell-based, human
Conditions: for Gata1 gene expression / HNF-3 beta gene expression / Insulin gene expression / Pdx-1 gene expression / sox17 gene expression: 1.25 μM 0-24 h + 96-120 h
Procedure: Several cell lines obtained from different amniotic fluid specimens (see Example 14) and pancreas donors (see Example 13) were tested with similar results. Two lines at similar passage number but derived from different amniotic fluid specimens are shown in Table VIII-A and Table VIII-B for this example. One of these cell lines was also used in examples 2 and 4 above. In addition, this example also contains comparison data in Table VIII-C and Table VIII-D for a single pancreatic-derived stromal line grown to early and late passage number.
Amniotic fluid derived cells or pancreatic-derived stromal cells were seeded into 24-well tissue culture plates at a density of 5000/cm^2 and cultured in AMNIOMAX (Invitrogen) or DMEM with 10% FBS respectively under standard cell culture conditions until confluent. After the cells reached confluency, amniotic fluid derived cells were treated at time 0 hours with a dose of 1.25 μM trichostatin A, and pancreatic-derived stromal cells were treated with a dose of 5.0 μM trichostatin A solubilized in DMSO and medium. At time 24 hours, cell cultures underwent a complete medium change to remove all traces of trichostatin A. At time 96 hours, cell cultures were re-fed with fresh medium and received a second dose of trichostatin A at the same concentration as used previously. At time 120 hours, cell cultures again underwent a complete medium change and were cultured for an additional 24 hours or […] total incubation time.
Samples were taken daily for RT-PCR at the times indicated in Table VIII-A to D. The culture media was removed, and samples were rinsed in PBS then collected in RLT with β-mercaptoethanol (Qiagen). RNA was purified using the RNeasy Mini Kit (Qiagen) and RNA quantity and quality were determined using a spectrophotometer. cDNA was made using the iScript cDNA synthesis kit (BioRad).
Samples of 20 ng cDNA were used in each reaction to determine the expression levels of the following genes in amniotic fluid-derived cells: Gata1, HNF-3 beta, Pdx-1, insulin, and Sox17. Similarly, samples of 20 ng cDNA were used in each reaction to determine the expression level of the following genes in pancreatic-derived cells: glucagon, HNF-3 beta, insulin and Pdx-1. Real-Time PCR was performed on the Applied Biosystems 7500, and data was analyzed using the accompanying software according to the methods described in Example 15.
Real-time PCR amplifcation and quantitative analysis. Unless otherwise stated, all reagents were purchased from Applied Biosystems. Real-time PCR reactions were performed using the ABI PRISM™ 7500 Sequence Detection System. TAQMAN™ FAST UNIVERSAL PCR MASTER MIX™ (ABI, CA) was used with 20 ng of reverse transcribed RNA in a total reaction volume of 20 μl. Each cDNA sample was run in duplicate to allow correction of pipetting errors. Primers and FAM-labeled TAQMAN™ probes were used at concentrations of 200 nM. The level of expression for each target gene was normalized using the pre-developed Applied Biosystem's human glyceraldehyde-3-phosphate dehydrogenase (GAPDH) endogenous control kit. Primers and probes were designed using either ABI PRISM PRIMER EXPRESS™ software or a pre-developed ABI gene analysis kit. For each gene, either one of the primers or the probe were designed to be exon-boundary spanning. This eliminated the possibility of the primers/probe binding to any genomic DNA present. The primer and probe sets are listed as follows: Pdx-1 (Hs00426216), Insulin (Hs00355773), glucagon (Hs00174967), and FoxA2 (HNF 3-beta) (Hs00232764). The remaining primers were designed using the PRIMERS program (ABI, CA). After an initial 95° C. incubation for 20 sec, samples were cycled 40 times in two stages: a denaturation step at 95° C. for 3 sec, followed by an annealing/extension step at 60° C. for 30 sec. […]

[1] = 1.25 μM, following the second treatment

CC(/C=C/C(=O)NO)=C\[C@@H](C)C(=O)c1ccc(N(C)C)cc1 [trichostatin A]
Gata1 gene expression (24 hrs): + (detectable between 35 and 40 cycles by RT-PCR)
HNF-3 beta gene expression (24 hrs): +++ (detectable at less than 35 cycles by RT-PCR with SE less than 0.9)
Insulin gene expression (24 hrs): nd (not detectable at >40 cycles by RT-PCR)
Pdx-1 gene expression (24 hrs): +++ (detectable at less than 35 cycles by RT-PCR with SE less than 0.9)
sox17 gene expression (24 hrs): +++ (detectable at less than 35 cycles by RT-PCR with SE less than 0.9)
Gata1 gene expression (48 hrs): nd (not detectable at >40 cycles by RT-PCR)
HNF-3 beta gene expression (48 hrs): +++ (detectable at less than 35 cycles by RT-PCR with SE less than 0.9)
Insulin gene expression (48 hrs): nd (not detectable at >40 cycles by RT-PCR)
Pdx-1 gene expression (48 hrs): nd (not detectable at >40 cycles by RT-PCR)
sox17 gene expression (48 hrs): +++ (detectable at less than 35 cycles by RT-PCR with SE less than 0.9)
Gata1 gene expression (72 hrs): nd (not detectable at >40 cycles by RT-PCR)
HNF-3 beta gene expression (72 hrs): +++ (detectable at less than 35 cycles by RT-PCR with SE less than 0.9)
Insulin gene expression (72 hrs): + (detectable between 35 and 40 cycles by RT-PCR)
Pdx-1 gene expression (72 hrs): nd (not detectable at >40 cycles by RT-PCR)
sox17 gene expression (72 hrs): +++ (detectable at less than 35 cycles by RT-PCR with SE less than 0.9)
Gata1 gene expression (96 hrs): nd (not detectable at >40 cycles by RT-PCR)
HNF-3 beta gene expression (96 hrs): + (detectable between 35 and 40 cycles by RT-PCR)
Insulin gene expression (96 hrs): + (detectable between 35 and 40 cycles by RT-PCR)
Pdx-1 gene expression (96 hrs): nd (not detectable at >40 cycles by RT-PCR)
sox17 gene expression (96 hrs): +++ (detectable at less than 35 cycles by RT-PCR with SE less than 0.9)
Gata1 gene expression (120 hrs): + (detectable between 35 and 40 cycles by RT-PCR)
HNF-3 beta gene expression (120 hrs): +++ (detectable at less than 35 cycles by RT-PCR with SE less than 0.9)
Insulin gene expression (120 hrs): nd (not detectable at >40 cycles by RT-PCR)
Pdx-1 gene expression (120 hrs): +++ (detectable at less than 35 cycles by RT-PCR with SE less than 0.9)
sox17 gene expression (120 hrs): +++ (detectable at less than 35 cycles by RT-PCR with SE less than 0.9)
Gata1 gene expression (144 hrs): nd (not detectable at >40 cycles by RT-PCR)
HNF-3 beta gene expression (144 hrs): +++ (detectable at less than 35 cycles by RT-PCR with SE less than 0.9)
Insulin gene expression (144 hrs): nd (not detectable at >40 cycles by RT-PCR)
Pdx-1 gene expression (144 hrs): nd (not detectable at >40 cycles by RT-PCR)
sox17 gene expression (144 hrs): +++ (detectable at less than 35 cycles by RT-PCR with SE less than 0.9)
Pdx-1 RT-PCR detection cycle (1.25 μM, after the initial treatment): 33 cycles
Insulin RT-PCR detection cycle (1.25 μM, after trichostatin A was washed away): 36 cycles
HNF-3 beta RT-PCR detection cycle [1]: 32 cycles
Pdx-1 RT-PCR detection cycle [1]: 32 cycles
HNF-3 beta RT-PCR detection cycle (1.25 μM, initial treatment): 35 cycles
HNF-3 beta RT-PCR detection cycle (1.25 μM, prior to the second addition): 38 cycles
